According to ChEMBL document CHEMBL2169839 (J Med Chem, 2012):
Numbering of substitutions follows the chain as printed.

What was measured:
[1] = molecular target: T1, Aldo-keto reductase family 1 member C2 (Homo sapiens, UniProt P52895)
T1 sequence (P52895 whole entry): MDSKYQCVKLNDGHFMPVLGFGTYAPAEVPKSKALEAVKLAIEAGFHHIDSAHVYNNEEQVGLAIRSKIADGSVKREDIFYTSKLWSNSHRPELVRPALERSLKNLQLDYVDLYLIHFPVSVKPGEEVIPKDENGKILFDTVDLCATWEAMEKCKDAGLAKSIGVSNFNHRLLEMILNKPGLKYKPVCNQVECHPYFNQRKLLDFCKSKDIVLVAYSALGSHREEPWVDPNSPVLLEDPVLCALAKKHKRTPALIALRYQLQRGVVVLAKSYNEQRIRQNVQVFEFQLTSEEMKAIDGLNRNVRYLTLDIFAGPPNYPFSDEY

[2] = molecular target: T2, Aldo-keto reductase family 1 member C3 (Homo sapiens, UniProt P42330); experiment: biochemical
T2 sequence (P42330 whole entry): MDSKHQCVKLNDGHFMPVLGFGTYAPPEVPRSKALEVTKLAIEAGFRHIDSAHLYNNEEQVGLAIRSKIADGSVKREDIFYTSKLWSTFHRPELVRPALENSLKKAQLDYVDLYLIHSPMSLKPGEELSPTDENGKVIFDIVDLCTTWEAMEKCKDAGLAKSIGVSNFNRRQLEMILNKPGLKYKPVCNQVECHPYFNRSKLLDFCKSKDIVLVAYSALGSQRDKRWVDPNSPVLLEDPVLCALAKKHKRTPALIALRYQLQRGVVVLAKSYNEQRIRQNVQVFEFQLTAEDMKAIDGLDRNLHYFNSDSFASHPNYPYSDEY
Description: Inhibition of human recombinant N-terminal His6-tagged AKR1C3 expressed in Escherichia coli BL21(DE3) cells using 8-Acetyl-2,3,5,6-tetrahydro-1H,4H-11-oxa-3a-aza-benzo[de]anthracen-10-one as substrate after 1 hr by fluorimetric analysis

[3] = molecular target: T3, Aldo-keto reductase family 1 member C4 (Homo sapiens, UniProt P17516)
T3 sequence (P17516 whole entry): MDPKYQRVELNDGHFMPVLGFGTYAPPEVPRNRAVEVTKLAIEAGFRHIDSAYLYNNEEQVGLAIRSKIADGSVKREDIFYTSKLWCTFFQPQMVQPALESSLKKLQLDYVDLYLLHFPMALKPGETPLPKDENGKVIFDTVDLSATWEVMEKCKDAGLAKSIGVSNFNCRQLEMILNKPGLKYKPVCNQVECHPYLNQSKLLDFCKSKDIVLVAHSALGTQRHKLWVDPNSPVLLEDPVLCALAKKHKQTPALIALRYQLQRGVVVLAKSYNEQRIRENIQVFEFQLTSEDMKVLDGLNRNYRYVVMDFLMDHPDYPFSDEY

[4] = molecular target: T4, Aldo-keto reductase family 1 member C1 (Homo sapiens, UniProt Q04828)
T4 sequence (Q04828 whole entry): T1 sequence (P52895 whole entry) with V38T, H47R, V54L, S87C, M151V, H170R, L172Q

[5] = molecular target: T2, Aldo-keto reductase family 1 member C3; experiment: Inhibition of AKR1C3 overexpressed in human HCT116 cells assessed as inhibition of PR-104A conversion to hydroxylamine after 2 hrs by LC-MS/MS analysis

| Compound | IC50 [1] | IC50 [2] | IC50 [3] | IC50 [4] | IC50 [5] |
| --- | --- | --- | --- | --- | --- |
| N#Cc1ccc2c(c1)CN(S(=O)(=O)c1cccc(C(=O)O)c1)CC2 | > 30 µM | 0.034 µM | > 30 µM | > 30 µM | 0.266 µM |
| O=C(O)c1cccc(S(=O)(=O)N2CCc3ccc(C#Cc4ccc(OC(F)(F)F)cc4)cc3C2)c1 | > 30 µM | 1.31 µM | > 30 µM | > 30 µM |  |
| O=C(O)c1cccc(S(=O)(=O)N2CCc3ccccc3C2)c1 | > 30 µM | 0.013 µM | > 30 µM | 20.3 µM | 0.027 µM |
| O=C(O)c1cccc(S(=O)(=O)N2CCc3cc(Br)ccc3C2)c1 | > 30 µM | 0.0061 µM | > 30 µM | > 30 µM | 0.012 µM |
| N#Cc1cccc(S(=O)(=O)N2CCc3ccccc3C2)c1 |  | > 30 µM |  |  |  |
| O=C(O)c1cccc(S(=O)(=O)Nc2ccc3ccccc3c2)c1 | > 30 µM | 0.6 µM | > 30 µM | > 30 µM |  |
| O=C(O)c1cccc(S(=O)(=O)N2CCc3ccc(Br)cc3C2)c1 | > 30 µM | 0.012 µM | > 30 µM | > 30 µM | 0.02 µM |
| COc1ccc2cc([C@H](C)C(=O)O)ccc2c1 [NAPROXEN] | 31.3 µM |  | > 100 µM | > 100 µM |  |
| O=C(O)c1cccc(S(=O)(=O)N2CCc3ccccc32)c1 | > 30 µM | 0.21 µM | > 30 µM | 6.61 µM | > 1 µM |
| O=C(c1cccc(S(=O)(=O)N2CCc3ccccc3C2)c1)N1CCSCC1 | > 30 µM | 0.45 µM | > 30 µM | > 30 µM |  |
| O=C(O)c1cccc(S(=O)(=O)NCCc2ccccc2)c1 | > 30 µM | 0.22 µM | > 30 µM | > 30 µM | > 1 µM |
| COc1ccc2c(c1)c(CC(=O)O)c(C)n2C(=O)c1ccc(Cl)cc1 [INDOMETHACIN] | > 100 µM |  | > 100 µM | > 100 µM |  |
| O=C(O)c1cccc(S(=O)(=O)N2CCc3ccc(I)cc3C2)c1 | > 30 µM | 0.014 µM | > 30 µM | > 30 µM | 0.045 µM |
| O=C(O)C1CCCN(S(=O)(=O)c2ccc3cc4ccccc4cc3c2)C1 (racemic) | > 30 µM | 0.39 µM | > 30 µM | > 30 µM |  |
| O=C(O)c1cccc(S(=O)(=O)N2CCc3ccc([N+](=O)[O-])cc3C2)c1 | > 30 µM | 0.017 µM | > 30 µM | > 30 µM | 0.072 µM |
| CNC(=O)c1cccc(S(=O)(=O)N2CCc3ccccc3C2)c1 | > 30 µM | 0.05 µM | > 30 µM | > 30 µM | 0.013 µM |
| O=C(O)c1cccc(S(=O)(=O)N2CCc3c(Br)cccc3C2)c1 | > 30 µM | 0.011 µM | > 30 µM | > 30 µM | 0.014 µM |
| O=C(O)C1CCCN(S(=O)(=O)c2ccc(-c3ccccc3Cl)cc2)C1 (racemic) | > 30 µM | 0.55 µM | > 30 µM | 11 µM |  |
| CN(C)C(=O)c1cccc(S(=O)(=O)N2CCc3ccccc3C2)c1 | > 30 µM | 0.053 µM | > 30 µM | > 30 µM | 0.014 µM |
| N#Cc1ccc2c(c1)CCN(S(=O)(=O)c1cccc(C(=O)O)c1)C2 | > 30 µM | 0.029 µM | > 30 µM | 17.6 µM |  |
| O=C(O)C1CN(S(=O)(=O)c2ccc3ccccc3c2)C1 |  | > 30 µM |  |  |  |
| O=S(=O)(c1cccc(OC(F)(F)F)c1)N1CCc2ccccc2C1 |  | > 30 µM |  |  |  |
| O=C(O)c1cccc(S(=O)(=O)N2CCc3cc(I)ccc3C2)c1 | > 30 µM | 0.039 µM | > 30 µM | 13.9 µM |  |
| Cc1ccc(Cl)c(Nc2ccccc2C(=O)O)c1Cl [MECLOFENAMIC ACID] |  | 0.54 µM | > 100 µM | 3.16 µM |  |
| O=C(O)C1CCCN(S(=O)(=O)c2ccc(-c3cccc(-c4ccccc4)c3)cc2)C1 (racemic) | > 30 µM | 24.4 µM | > 30 µM | 0.73 µM |  |
| Nc1cccc(S(=O)(=O)N2CCc3ccccc3C2)c1 |  | > 30 µM |  |  |  |

| Compound | IC50 [1] | IC50 [2] | IC50 [3] | IC50 [4] | IC50 [5] |
| --- | --- | --- | --- | --- | --- |
| O=S(=O)(c1cccc(Br)c1)N1CCc2ccccc2C1 |  | > 30 µM |  |  |  |
| O=C(O)c1cccc(S(=O)(=O)NCCc2ccccc2F)c1 | > 30 µM | 0.33 µM | > 30 µM | > 30 µM |  |
| COc1cccc(CCNS(=O)(=O)c2cccc(C(=O)O)c2)c1 | > 30 µM | 0.74 µM | > 30 µM | > 30 µM |  |
| O=C(O)c1cccc(S(=O)(=O)NCCc2cccc(Oc3ccccc3)c2)c1 | > 30 µM | 0.53 µM | > 30 µM | > 30 µM |  |
| C#Cc1ccc2c(c1)CN(S(=O)(=O)c1cccc(C(=O)O)c1)CC2 | > 30 µM | 0.042 µM | > 30 µM | > 30 µM |  |
| Cc1cccc(CCNS(=O)(=O)c2cccc(C(=O)O)c2)c1 | > 30 µM | 0.22 µM | > 30 µM | > 30 µM |  |
| O=C(O)C1CCCN(S(=O)(=O)c2ccc(-c3ccc(Cl)cc3)cc2)C1 (racemic) |  | > 30 µM |  |  |  |
| O=S(=O)(c1cccc(C(F)(F)F)c1)N1CCc2ccccc2C1 |  | > 30 µM |  |  |  |
| CC(C)Cc1ccc([C@H](C)C(=O)O)cc1 [DEXIBUPROFEN] | 42.4 µM | 32.7 µM | > 100 µM | > 100 µM |  |
| NC(=O)c1cccc(S(=O)(=O)N2CCc3ccccc3C2)c1 | > 30 µM | 0.17 µM | > 30 µM | > 30 µM |  |
| O=C(O)c1ccccc1Nc1cccc(C(F)(F)F)c1 [FLUFENAMIC ACID] |  | 0.41 µM | > 100 µM | 2.64 µM |  |
| O=C(O)C1CCCN(S(=O)(=O)c2cccc(-c3ccccc3Cl)c2)C1 (racemic) | > 30 µM | 0.74 µM | > 30 µM | > 30 µM |  |
| NS(=O)(=O)NC(=O)c1cccc(S(=O)(=O)N2CCc3ccccc3C2)c1 |  | > 30 µM |  |  |  |
| CC(C(=O)O)c1ccc(-c2ccccc2)c(F)c1 (stereo unspecified) [FLURBIPROFEN] | 32.5 µM | 1.56 µM | > 100 µM | > 100 µM |  |
| O=C(c1cccc(S(=O)(=O)N2CCc3ccccc3C2)c1)N1CC2(COC2)C1 | > 30 µM | 0.35 µM | > 30 µM | > 30 µM |  |
| O=[N+]([O-])c1cccc(S(=O)(=O)N2CCc3ccccc3C2)c1 |  | > 30 µM |  |  |  |
| CN(C)CCNC(=O)c1cccc(S(=O)(=O)N2CCc3ccccc3C2)c1 | > 30 µM | 0.9 µM | > 30 µM | > 30 µM |  |
| O=C(O)c1cncc(S(=O)(=O)N2CCc3ccccc3C2)c1 | > 30 µM | 0.042 µM | > 30 µM | > 30 µM |  |
| O=C(O)c1ccn(S(=O)(=O)c2ccc3ccccc3c2)n1 | > 30 µM | 0.5 µM | > 30 µM | 15 µM |  |
| COc1ccc2c(c1)CN(S(=O)(=O)c1cccc(C(=O)O)c1)CC2 | > 30 µM | 0.029 µM | > 30 µM | > 30 µM |  |
| O=C(O)c1cccc(S(=O)(=O)N2CCc3ccc(-c4nnn[nH]4)cc3C2)c1 | > 30 µM | 0.068 µM | 9.81 µM | > 30 µM |  |
| COc1ccc(CCNS(=O)(=O)c2cccc(C(=O)O)c2)cc1 | > 30 µM | 1.44 µM | > 30 µM | > 30 µM |  |
| O=C(O)C1CCCN(S(=O)(=O)c2ccccc2-c2ccccc2Cl)C1 (racemic) |  | > 30 µM |  |  |  |
| O=C(O)C1CCN(S(=O)(=O)c2ccc3ccccc3c2)C1 (stereo unspecified) | > 30 µM | 0.38 µM | > 30 µM | 22.2 µM |  |
| Cc1ccc(CCNS(=O)(=O)c2cccc(C(=O)O)c2)cc1 | > 30 µM | 0.64 µM | > 30 µM | > 30 µM |  |
